Key:
MARCKS = experiment: Phosphorylation state of MARCKS in airway epithelial cells; assay type: cell-based, human
Description: To detect MARCKS protein in these cells, cells were labeled with ^3H-myristic acid (as MARCKS is myristoylated) for 16 hours in media. Cells were lysed, and MARCKS protein was immunoprecipitated according to the method of Spizz & Blackshear (J Biol Chem 271:553, 1996) using monoclonal antibody 2F12 (a gift from the Blackshear laboratory).
(§1) Phosphorylation of MARCKS by PMA was attenuated by Calphostin C (500 nM). NHBE cells also contained substantial amounts of cGMP-dependent protein kinase type 1α (PKG-1α) activity, which was localized to the cytosolic fraction. […] In addition, the phosphorylation of MARCKS induced by PMA was reversed by incubation with 8-Br-cGMP (10 µM).

[1] = test system: normal human bronchial epithelial (NHBE) cells; experiment: UTP-induced mucin secretion, air-liquid interface culture, mucus ELISA; assay type: cell-based; settings: for mucin secretion in cells stimulated by secretagogues: general statement, Example 9: 15 min pre-incubation, UTP 0.1 mM 2 hours, 500 nM calphostin C, 10 µM Rp-8-Br-PET-cGMP, 50 µM LY83583
Description: (§2) Cell Culture System: Expansion and cryopreservation. Primary normal human bronchial epithelial (NHBE) cells (Clonetics, San Diego, CA) were seeded into vented T75 tissue culture flasks (500 cells/cm^2) in bronchial epithelial basal medium (BEBM; Clonetics, San Diego, CA) containing 25 ng/ml human recombinant epidermal growth factor (EGF; Intergen, Purchase, NY), 65 ng/ml bovine pituitary extract (prepared by the methods of Bertolero et al. Exp Cell Res 155:64, 1984), 5 x 10^-8M all-trans retinoic acid, 1.5µg/ml bovine serum albumin (Intergen, Purchase, NY), 20 IU/ml nystatin (Gibco, Grand Island, NY), 0.5µg/ml hydrocortisone, 5µg/ml insulin, 10µg/ml transferrin, 0.5µg/ml epinephrine, 6.5ng/ml triiodothyronine, 50µg/ml gentamicin, and 50µg/ml amphotericin-B (Clonetics; San Diego, CA). Once confluent, cultures were dissociated with trypsin/EDTA and frozen as passage-2 according to the methods of Clonetics Corporation.
Air-liquid interface culture of NHBE cells. Following the expansion, NHBE cells were cultured in air/liquid interface according to the methods of Gray and coworkers with minor modifications (Gray et al. Am J Respir Cell Mol Biol 14:104, 1996). The air-liquid interface culture was initiated by seeding NHBE cells (passage-2, 2x10^4 cells/cm^2) on Transwell-clear culture inserts (24.5 mm, 0.45 µm pore size; Costar, Cambridge, MA) that were thin coated with rat tail collagen, type I (Collaborative Research, Bedford, MA). Cells were cultured submerged to 70% confluency (5-7 days) in a 1:1 mixture of bronchial epithelial cell growth medium (Clonetics, San Diego, CA):Dulbecco's modified Eagles medium with high glucose (BEGM:DMEM-H), containing the same supplements as described above with the exception of EGF (0.5 ng/ml). When cultures were 70% confluent, the air-liquid interface was created by removing the apical medium, and the basal medium (BEGM:DMEM-H) was changed daily thereafter. Cells were then cultured for an additional 14 days in air-liquid interface, a total of 21 days in culture.
(§3) Mucus ELISA: Mucus secreted from the airway epithelial cells in vitro after stimulation by activators was assessed using an ELISA (antibody capture method) (E. Harlow, D. Lane. "Antibodies: A Laboratory Manual." New York: Cold Spring Harbor Laboratory Press, 1988), wherein the collected mucus is bound directly to the ELISA plate. Mucus was detected using an antibody raised against monkey airway mucus (Lin et al. Am J Respir Cell Mol Biol 1:41, 1989). […]
NHBE cells were pre-incubated with the indicated inhibitor for 15 min, then stimulated with UTP (0.1mM) for 2 hours. Secreted mucin in the apical medium was collected and assayed by ELISA.

[2] = test system: normal human bronchial epithelial (NHBE) cells; experiment: Mucin secretion stimulated by PMA + 8-Br-cGMP, air-liquid interface culture, mucus ELISA; assay type: cell-based; settings: 500nM, pre-incubated 15 min; PMA (100 nM) + 8-Br-cGMP (1µM) for 15 min
Description: as §2, with “Corporation. […]” for “Corporation.”
as §3

[3] = molecular target: T1, cGMP-dependent protein kinase type 1α (PKG-1α) (Homo sapiens, UniProt Q13976); experiment: PKG activity in NHBE cells; assay type: cell-based; settings: 100 µM
T1 construct: NHBE cells also contained substantial amounts of cGMP-dependent protein kinase type 1α (PKG-1α) activity; endogenous in cells; host or cells: primary normal human bronchial epithelial (NHBE) cells, Clonetics
T1 sequence (Q13976 1-671): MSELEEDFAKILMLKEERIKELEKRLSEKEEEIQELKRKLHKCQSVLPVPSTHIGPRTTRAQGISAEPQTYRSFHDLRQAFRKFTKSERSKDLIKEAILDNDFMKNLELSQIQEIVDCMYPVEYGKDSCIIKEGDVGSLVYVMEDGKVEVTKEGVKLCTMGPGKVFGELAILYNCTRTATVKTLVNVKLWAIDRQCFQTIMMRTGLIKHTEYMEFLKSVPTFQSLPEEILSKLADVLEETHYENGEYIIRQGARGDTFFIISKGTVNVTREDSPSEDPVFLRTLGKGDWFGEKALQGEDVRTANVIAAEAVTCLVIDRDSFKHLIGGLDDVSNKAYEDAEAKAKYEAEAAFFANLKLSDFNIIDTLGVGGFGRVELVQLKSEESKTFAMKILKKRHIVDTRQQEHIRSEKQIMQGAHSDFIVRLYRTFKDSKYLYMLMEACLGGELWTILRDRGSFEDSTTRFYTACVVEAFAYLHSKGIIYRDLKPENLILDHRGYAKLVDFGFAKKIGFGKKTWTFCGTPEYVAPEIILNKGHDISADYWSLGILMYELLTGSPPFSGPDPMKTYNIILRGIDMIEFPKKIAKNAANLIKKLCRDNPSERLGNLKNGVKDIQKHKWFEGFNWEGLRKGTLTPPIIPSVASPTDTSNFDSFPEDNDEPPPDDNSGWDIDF
Description: as §1

Molecule: Nc1nc2c(nc(Br)n2[C@@H]2O[C@@H]3COP(=O)(O)O[C@H]3[C@H]2O)c(=O)[nH]1 [8-Br-cGMP, 8-bromo-cGMP]
- phosphorylation of MARCKS induced by PMA (MARCKS; 10 µM): reversed

Molecule: O=C1C(Nc2ccccc2)=CC(=O)c2ncccc21 [LY83585]
- mucin secretion in cells stimulated by secretagogues [1]: inhibit mucin secretion

Molecule: CCCCCCCCCCCCCC(=O)O[C@@H]1[C@@H](C)[C@@]2(O)[C@@H](C=C(CO)C[C@]3(O)C(=O)C(C)=C[C@@H]23)[C@@H]2C(C)(C)[C@]12OC(C)=O [PMA, phorbol 12-myristate 13-acetate]
- phosphorylation of MARCKS (MARCKS; PMA 100 nM, concentration of 4α-PMA not given): phosphorylated

Molecule: O=c1c2nc(Br)n(C3OC4COP(=O)(S)OC4C3O)c2nc2[nH]c(-c3ccccc3)cn12 (centres unmarked) [Rp-8-Br-PET-cGMP]
- mucin secretion in cells stimulated by secretagogues [1]: inhibit mucin secretion

Molecule: C=C1[C@@H](O)[C@@H]2O[C@]3(CC[C@H](/C=C/[C@@H](C)[C@@H]4CC(C)=C[C@@]5(O[C@H](C[C@@](C)(O)C(=O)O)CC[C@H]5O)O4)O3)CC[C@H]2O[C@@H]1[C@@H](O)C[C@H](C)[C@H]1O[C@@]2(CCCCO2)CC[C@H]1C [okadaic acid]
- mucin hypersecretion induced by UTP ([1]; 500nM, pre-incubated 15 min, UTP (0.1 mM) for 2 hours): blocks mucin hypersecretion
- mucin secretion in cells stimulated by secretagogues [1]: inhibit mucin secretion
- mucin hypersecretion induced by PMA + 8-Br-cGMP [2]: blocks mucin hypersecretion
- reversal by 8-Br-cGMP of PMA-induced phosphorylation of MARCKS (MARCKS; 500 nM): inhibited this effect

Molecule: calphostin C
- mucin secretion in cells stimulated by secretagogues [1]: inhibit mucin secretion
- phosphorylation of MARCKS by PMA (MARCKS; 500 nM): attenuated

Molecule: dibutyryl cGMP
- constitutive PKG activity [3]: increased

— patent EP1538162B1, “Compositions for altering mucus secretion” (NORTH CAROLINA STATE UNIVERSITY, priority 1999, dated 2000)
